Laboratory results taken from patent US20040063662A1, “Selenophene anti-tumor agents” (priority 1996, published 2004).

What was measured:
IGROV1 = experiment: NCI human tumor cell panel: IGROV1 (Ovarian Cancer); type: cell-based; details: IGROV-1, IGROV1, Ovarian Cancer
OVCAR-5 = experiment: NCI human tumor cell panel: OVCAR-5 (Ovarian Cancer); type: cell-based; details: OVCAR-5, Ovarian Cancer
NCI-H522 = experiment: NCI human tumor cell panel: NCI-H522 (Non-Small Cell Lung Cancer)
MALME-3M = experiment: NCI human tumor cell panel: MALME-3M (Melanoma); type: cell-based; details: MALME-3M, Melanoma
UO-31 = experiment: NCI human tumor cell panel: UO-31 (Renal Cancer); type: cell-based; details: UO-31, Renal Cancer
TK-10 = experiment: NCI human tumor cell panel: TK-10 (Renal Cancer); type: cell-based; details: TK-10, Renal Cancer
HOP-92 = experiment: NCI human tumor cell panel: HOP-92 (Non-Small Cell Lung Cancer)
786-0 = experiment: NCI human tumor cell panel: 786-0 (Renal Cancer); type: cell-based; details: 786-0, Renal Cancer
NCI-H460 = experiment: NCI human tumor cell panel: NCI-H460 (Non-Small Cell Lung Cancer); type: cell-based; details: NCI-H460, Non-Small Cell Lung Cancer
PC-3 = experiment: NCI human tumor cell panel: PC-3 (Prostate Cancer); type: cell-based; details: PC-3, Prostate Cancer
OVCAR-3 = experiment: NCI human tumor cell panel: OVCAR-3 (Ovarian Cancer); type: cell-based; details: OVCAR-3, Ovarian Cancer
NCI-H322M = experiment: cells; type: cell-based; details: Homo sapiens, Non-Small Cell Lung Cancer
MCF7/ADR-RES = experiment: NCI human tumor cell panel: MCF7/ADR-RES (Breast Cancer); type: cell-based; details: Breast Cancer
SK-MEL-28 = experiment: NCI human tumor cell panel: SK-MEL-28 (Melanoma); type: cell-based; details: SK-MEL-28, Melanoma
BT-549 = experiment: NCI human tumor cell panel: BT-549 (Breast Cancer); type: cell-based; details: BT-549, Breast Cancer
KM12 = experiment: NCI human tumor cell panel: KM12 (Colon Cancer); type: cell-based; details: KM12, Colon Cancer
OVCAR-8 = experiment: NCI human tumor cell panel: OVCAR-8 (Ovarian Cancer); type: cell-based; details: OVCAR-8, Ovarian Cancer
K-562 = experiment: NCI human tumor cell panel: K-562 (Leukemia); type: cell-based; details: K562, K-562, Leukemia
RPMI-8226 = experiment: NCI human tumor cell panel: RPMI-8226 (Leukemia); type: cell-based; details: RPMI-8226, Leukemia
UACC-257 = experiment: NCI human tumor cell panel: UACC-257 (Melanoma); type: cell-based; details: UACC-257, Melanoma
ACHN = experiment: NCI human tumor cell panel: ACHN (Renal Cancer); type: cell-based; details: Renal Cancer
EKVX = experiment: NCI human tumor cell panel: EKVX (Non-Small Cell Lung Cancer); type: cell-based; details: Non-Small Cell Lung Cancer
HS 578T = experiment: NCI human tumor cell panel: HS 578T (Breast Cancer); type: cell-based; details: Breast Cancer
LOX IMVI = experiment: NCI human tumor cell panel: LOX IMVI (Melanoma); type: cell-based; details: Melanoma
SNB-19 = experiment: NCI human tumor cell panel: SNB-19 (CNS Cancer); type: cell-based; details: SNB-19, CNS Cancer
A498 = experiment: NCI human tumor cell panel: A498 (Renal Cancer); type: cell-based; details: A498, Renal Cancer
A549/ATCC = experiment: NCI human tumor cell panel: A549/ATCC (Non-Small Cell Lung Cancer); type: cell-based; details: Non-Small Cell Lung Cancer
MDA-MB-435 = experiment: NCI human tumor cell panel: MDA-MB-435 (Breast Cancer); type: cell-based; details: MDA-MB-435, Breast Cancer
SF-295 = experiment: NCI human tumor cell panel: SF-295 (CNS Cancer); type: cell-based; details: SF-295, CNS Cancer
OVCAR-4 = experiment: NCI human tumor cell panel: OVCAR-4 (Ovarian Cancer); type: cell-based; details: OVCAR-4, Ovarian Cancer
SR = experiment: NCI human tumor cell panel: SR (Leukemia); type: cell-based; details: Leukemia
SF-539 = experiment: NCI human tumor cell panel: SF-539 (CNS Cancer); type: cell-based; details: SF-539, CNS Cancer
[1] = read-out: Log10 GI50 (converted)
[2] = read-out: Log10 TGI (converted)

## OCc1ccc(-c2ccc(-c3cccs3)[se]2)s1 [NSC 675344]
IGROV1; [1]
  GI50: 0.0123 µM
IGROV1; [2]
  IC (TGI): 0.0427 µM
OVCAR-5; [1]
  GI50: < 0.01 µM
OVCAR-5; [2]
  IC (TGI): 0.0871 µM
NCI-H522; NCI-H522, read-out: Log10 GI50 (converted)
  GI50: > 100 µM
NCI-H522; NCI-H522, read-out: Log10 TGI
  IC (TGI): > 100 µM
MALME-3M; [1]
  GI50: > 100 µM
MALME-3M; [2]
  IC (TGI): > 100 µM
UO-31; [1]
  GI50: > 100 µM
UO-31; [2]
  IC (TGI): > 100 µM
TK-10; [1]
  GI50: < 0.01 µM
TK-10; [2]
  IC (TGI): 0.0501 µM
HOP-92; HOP-92, read-out: Log10 GI50 (converted)
  GI50: 27.5 µM
HOP-92; HOP-92, read-out: Log10 TGI
  IC (TGI): 89.1 µM
786-0; [1]
  GI50: 12.3 µM
786-0; [2]
  IC (TGI): 67.6 µM
NCI-H460; [1]
  GI50: < 0.01 µM
NCI-H460; [2]
  IC (TGI): > 100 µM
PC-3; [1]
  GI50: > 100 µM
PC-3; [2]
  IC (TGI): > 100 µM
OVCAR-3; [1]
  GI50: < 0.01 µM
OVCAR-3; [2]
  IC (TGI): > 100 µM
NCI-H322M; [1]
  GI50: 20.9 µM
NCI-H322M; [2]
  IC (TGI): > 100 µM
MCF7/ADR-RES; [1]
  GI50: > 100 µM
MCF7/ADR-RES; [2]
  IC (TGI): > 100 µM
SK-MEL-28; [1]
  GI50: > 100 µM
SK-MEL-28; [2]
  IC (TGI): > 100 µM
BT-549; [1]
  GI50: 42.7 µM
BT-549; [2]
  IC (TGI): > 100 µM
KM12; [1]
  GI50: > 100 µM
KM12; [2]
  IC (TGI): > 100 µM
OVCAR-8; [1]
  GI50: > 100 µM
OVCAR-8; [2]
  IC (TGI): > 100 µM
K-562; [1]
  GI50: 0.0437 µM
K-562; [2]
  IC (TGI): > 100 µM
RPMI-8226; [1]
  GI50: > 100 µM
RPMI-8226; read-out: Log10 TGI
  IC (TGI): > 100 µM
UACC-257; [1]
  GI50: < 0.01 µM
UACC-257; [2]
  IC (TGI): 0.0186 µM
ACHN; [1]
  GI50: 12.9 µM
ACHN; [2]
  IC (TGI): 83.2 µM
EKVX; [1]
  GI50: > 100 µM
EKVX; [2]
  IC (TGI): > 100 µM
HS 578T; [1]
  GI50: 53.7 µM
HS 578T; [2]
  IC (TGI): > 100 µM
LOX IMVI; [1]
  GI50: 34.7 µM
LOX IMVI; [2]
  IC (TGI): > 100 µM
SNB-19; [1]
  GI50: 29.5 µM
SNB-19; [2]
  IC (TGI): > 100 µM
A498; [1]
  GI50: < 0.01 µM
A498; [2]
  IC (TGI): 0.0182 µM
A549/ATCC; [1]
  GI50: 45.7 µM
A549/ATCC; [2]
  IC (TGI): > 100 µM
MDA-MB-435; [1]
  GI50: > 100 µM
MDA-MB-435; [2]
  IC (TGI): > 100 µM
SF-295; [1]
  GI50: 26.9 µM
SF-295; [2]
  IC (TGI): > 100 µM
OVCAR-4; [1]
  GI50: 0.0417 µM
OVCAR-4; [2]
  IC (TGI): > 100 µM
SR; [1]
  GI50: > 100 µM
SR; [2]
  IC (TGI): > 100 µM
SF-539; [1]
  GI50: > 100 µM
SF-539; [2]
  IC (TGI): > 100 µM
